# Measurements from patent publication US8802439B2, “Methods for enhancing infectivity of retroviruses” (priority 2009, dated 2014).
# Entries after “also recorded” stand apart in the source; their conditions may differ.
# Key:
# HCV = HCV infectivity titer of supernatants from persistently infected HUH-7 cells; type: cell-based; details: PiB 16 μM and 8 μM, 1 hour pre-treatment plus 9 hours at 37° C.
# Protocol: Cells persistently infected with HCV were treated with vehicle (DMSO), an MTP inhibitor (BMS-200150) capable of inhibiting HCV secretion, or with two doses of PiB (16 μM and 8 μM). After 1 hour of pre-treatment at 37° C., cells were washed with warm PBS and further incubated in normal medium containing the same drugs for an additional 9 hours at 37° C. Cell supernatants containing infectious HCV were collected for infectivity titer determination.
# Infection assays for HCV: Persistently infected cells were treated with vehicle (DMSO), an MTP inhibitor (BMS-200150) capable of inhibiting HCV secretion, or with two doses of PiB (16 μM and 8 μM). After 1 hour of pre-treatment at 37° C., cells were washed with warm PBS and further incubated in normal medium containing the same inhibitors for an additional 9 hours at 37° C. Cell supernatants containing infectious HCV were collected for infectivity titer determination. […] Note that Pin1 is able to block HIV-1 in the HUH-7 cell line used to propagate HCV.
# Persistently infected HUH-7 cells were treated with solvent DMSO (circles), or increasing concentrations of PiB (squares). After 1 hour of pre-treatment cells were washed and further incubated in normal medium containing the same inhibitors for an additional 9 hours at 37° C. Cell supernatants containing infectious HCV were collected for infectivity titer determination.
# [1] = test system: other prolyl isomerases such as CypA or FKBP; details: cited from earlier work
# HIV-1-GFP = assay: Infectivity of HIV-1-GFP virions (RT-normalized), GFP fluorescence via FACS; type: cell-based
# Protocol: 293T cells were transfected with HIV-1-GFP, SIV-GFP, bMLV-GFP, and nMLV-GFP proviral constructs, and in each case CMV-VSV-G, in the presence or absence of PiB or excess Pin1 as described above. Released virions were normalized via RT assay (EnzChek® Reverse Transcriptase Assay Kit), and infectivity on naïve TZMb1 cells was analyzed by GFP fluorescence via FACS (% cells infected).
# Infection assays for retrovirus: Single-round infections: CD4^+ TZM-bl 100,000 cells/well/mL were seeded onto 24-well plates 24 hours prior to infection. These cells were infected in quadruplicate to 24-well plates. Infectivity was scored using an enzymatic galactosidase activity assay. Specifically, infected TZM-bl cells were washed and lysed, and 20 μl of lysate was transferred to a 96-well plate for detecting β-galactosidase activity. 100 μl of reaction buffer Galacton-Star substrate (Applied Biosystems, Bedford, Mass.), diluted 1:50, was added to 20 μl of lysate, and the light emission was measured over 1 second in a microplate luminometer after 30 minutes incubation. […] Replication was monitored by p24 ELISA. […] Viruses were used to infect in duplicate wells, incubated for 48 hours, washed with PBS, trypsinized, fixed in 1% formaldehyde and subsequently analyzed by fluorescence-activated cell sorting (FACS) for percentage cells infected.
# We next asked whether Pin1 influences the infectivity of other retroviruses such as SIV, bMLV and nMLV. […] However, unlike previous experiments, virions were normalized via RT assay and infectivity in target cells was analyzed by GFP fluorescence via FACS. […] Note that the observed effect of Pin1 on HIV-1 infectivity using a different means of normalizing viruses (reverse transcriptase activity vs. p24 capsid) and a different means of quantifying infectivity (GFP), agrees with our previous findings above.
# We further examined whether blocking Pin1 in producer cells can enhance the infectivity of retroviruses in different primate target cells. […] Infectivity was analyzed by GFP fluorescence via FACS. […]
# HIV-1 = HIV-1 viral production in 293T producer cells, p24 ELISA of supernatants; type: cell-based
# Source text: Plasmids: Laboratory-adapted provirus NL4.3, and the CypA-independent NL4.3 CAi2 were kindly provided by Akio Adachi (Department of Virology, Institute of Health Biosciences, The University of Tokushima Graduate School, JAPAN). Mutant R9G89V was a gift from P. Gallay (TSR1) as were NL4.3-GFP and SIV-GFP (originally Dana Gabuzda, Dana Farber Cancer Institute). NL4.3 A92E was kindly provided by W. Phares (Genetics Unit, Novartis Forschungsinstitut, Vienna, Austria). R9Δgp160 plasmid clone was kindly provided by C. Aiken (Vanderbilt Medical Center). VSV-G (CMV-VSV-G) was kindly provided by D. Trono (École Polytechnique Fédérale de Lausanne). Both bMLV-GFP and nMLV-GFP in the form of pCIG3-N, pCIG3-B as well as pCNCG were kindly provided by J. Stoye (National Institute for Medical Research, UK). Isomerase mutant Pin1 (pFLAG-Pin1R68,69A) and WW-domain mutant Pin1 (pFLAG-Pin1 W34A) were constructed by site-directed mutagenesis. Pseudotyping experiments were performed using DNA constructs encoding the VSV-G generously provided by D. Trono. Human Pin1 was cloned into pFLAG (Sigma-Aldrich) making pFLAG-Pin1. Viruses were produced by transfection of 293T cells using either GeneJuice (Novagen) or calcium phosphate. […] All viruses were harvested 24-48 hours post-transfection and filtered (0.2-μM filter, Steriflip Millipore). […]
smiles,measurement,setting,value
"CCOC(=O)CN1C(=O)c2ccc3c4c(ccc(c24)C1=O)C(=O)N(CC(=O)OCC)C3=O [PiB, diethyl-1,3,6,8-tetrahydro-1,3,6,8-tetraoxobenzo[lmn][3,8]phenanthroline-2,7-diacetate]",infectious HCV in cell supernatants (infectivity titer),HCV,does not enhance HCV infectivity; also recorded: does not enhance replication
same,"inhibition of other PPIase families (CypA, FKBP)",[1],do not inhibit
same,boost of HIV-1-GFP infectivity,"HIV-1-GFP; produced in 293T with PiB, TZMb1 cells, % cells infected",3 fold
same,infectivity of HIV-1-GFP in primate target cell panel,"HIV-1-GFP; produced with PiB, TZM, OMK, sMAGI, Vero, CV-1 target cells",enhanced infectivity
same,boost of HIV-GFP infectivity in OMK cells,HIV-1-GFP; relative to control HIV-1 infectivity seen in sMAGI cells (no infection of OMK with control HIV-1),400%
same,viral production (HIV-1 capsid in viral supernatants by p24 ELISA),HIV-1,Neither inhibitor influences viral production; also recorded: do not alter viral production
